Where a SMILES comes first, the peptide text is derived from it. [ ]: non-standard residue; d: D form.
Experiments:
[1] = tested on: Rad51 foci in SK-N-BE(2)c cells; test: Rad51 foci immunofluorescence after γ-irradiation; format: cell-based, human; conditions: 2 h peptide pretreatment, 5 Gy
Protocol: (§1) To study DNA damage and repair, attached cells were pretreated with the peptides for 2 h and were then ã-irradiated (5 Gy). After irradiation, cells were cultured in the presence of the peptides for the indicated time. For analyzing ãH2A.X foci formation, cells were fixed in a solution of methanol and acetone (70%:30% v/v) for 15 min at −20°C. The slides were air-dried for storage and rehydrated in PBS prior to immunostaining. Cells were stained by a mouse monoclonal antibody specific to ãH2A.X (Millipore, Billerica, MA) followed by an Alexa Fluor 488 conjugated anti-mouse IgG antibody. For analyzing Rad51 foci formation, cells were fixed in PBS buffered 4% paraformaldehyde at room temperature for 15 min. After being washed twice by PBS, cells were permeabilized in PBS containing 0.5% triton for 15 min on ice. The fixed and permeabilized cells were stained with a rabbit polyclonal antibody raised against the human Rad51 (Santa Cruz) followed by an Alexa Fluor 488 conjugated anti-rabbit IgG antibody. Stained cells were visualized and imaged by a confocal microscope.

[2] = tested on: PCNA and POLD3 co-localization in SK-N-AS NB cells; test: PCNA/POLD3 co-localization, immunofluorescence; format: cell-based, human; conditions: synchronized, 30 µM peptide 6 h after mimosine release
Protocol: (§2) Cells were seeded at 1×10^5/ml onto a chamber slide and were allowed to attach overnight. To analyze the interaction of PCNA with FEN1, LIGI, or Pol ä, we first synchronize cells at the G1/S boundary. The synchronization is achieved by starving cells in medium containing 0.25% FBS for 24 h. Cells were further cultured in the complete medium containing 400 µM of mimosine for 24 h. To release cells into S phase, cells were washed and incubated in mimosine-free medium containing 30 µM R9-caPep or R9-srbPep for 6 h. We pre-determined that the majority of cells were in the S-phase 6 h after mimosine was removed (data not shown). Cells were fixed in ice-cold methanol:acetone (50%:50%) for 10 min or in 4% paraformaldehyde for 20 min at room temperature. Cells were incubated with a goat polyclonal anti-PCNA antibody (Santa Cruz) and a mouse monoclonal anti-FEN1 antibody (Santa Cruz), a mouse anti-POLD3 antibody (Sigma, St. Louis, MO), or a mouse anti-LIGI antibody (Abcam, Cambridge, MA) for 1 h at room temperature. After being washed with PBS, cells were incubated with Alexa Fluor 488 conjugated anti-mouse IgG and Alexa Fluor 555 conjugated anti-goat IgG antibodies (Invitrogen, Grand Island, NY) for 1 h. Cells were mounted in Vectashield with DAPI (Vector Labs, Burlingame, CA) and visualized by a confocal microscope.

[3] = tested on: ãH2A.X level; test: γH2A.X western blot after γ-irradiation; format: cell-based; conditions: 30 µM peptide, 2 h pretreatment, 5 Gy
Protocol: as §1
Cell extracts were prepared by dissolving cell pellets directly into the Laemmli sample buffer and resolved in a 4–12% SDS polyacrylamide gel. Resolved proteins were blotted onto a nitrocellulose membrane. The membrane was blocked with 5% nonfat dry milk and incubated with an antibody specific to ãH2A.X (Millipore), total H2A.X (Cell Signaling Technology, Danvers, MA), MYCN (Cell Signaling Technology), or actin (Sigma) in the blocking buffer. After incubation with peroxidase-conjugated secondary antibodies, the protein of interest was detected using an ECL kit purchased from GE Healthcare.

[4] = tested on: ãH2A.X foci; test: γH2A.X foci immunofluorescence after γ-irradiation; format: cell-based; conditions: 30 µM peptide, 2 h pretreatment, 5 Gy; five fields; vs R9-srbPep
Protocol: as §1

[5] = tested on: breast, lung, and pancreatic cancer cell lines; test: Toxicity to breast, lung, and pancreatic cancer cell lines (data not shown); format: cell-based; conditions: in comparison with non-malignant cell lines of respective tissue origins
[6] = tested on: PCNA and LIGI co-localization in SK-N-AS NB cells; test: PCNA/LIGI co-localization, immunofluorescence; format: cell-based, human; conditions: synchronized, 30 µM peptide 6 h after mimosine release
Protocol: as §2

SMILES: CC[C@H](C)[C@H](NC(=O)CNC(=O)[C@H](CC(C)C)NC(=O)[C@H](CS)NC(=O)[C@H](CS)NC(=O)[C@@H](CCCNC(=N)N)NC(=O)[C@@H](CCCNC(=N)N)NC(=O)[C@@H](CCCNC(=N)N)NC(=O)[C@@H](CCCNC(=N)N)NC(=O)[C@@H](CCCNC(=N)N)NC(=O)[C@@H](CCCNC(=N)N)NC(=O)[C@@H](CCCNC(=N)N)NC(=O)[C@@H](CCCNC(=N)N)NC(=O)[C@H](N)CCCNC(=N)N)C(=O)N1CCC[C@H]1C(=O)N[C@@H](CCC(=O)O)C(=O)N[C@@H](CCC(N)=O)C(=O)N[C@@H](CCC(=O)O)C(=O)N[C@@H](Cc1ccc(O)cc1)C(=O)O [R9-caPep] (H-[dR][dR][dR][dR][dR][dR][dR][dR][dR]CCLGIPEQEY-OH; N-terminus and C-terminus assumed)
- number of Rad51-positive cells at 4 h ([1]; 4 h after irradiation): reduced the number of Rad51-positive cells at 4 h after ã-irradiation
- Rad51 background staining at 48 h ([1]; 48 h after irradiation): strong and diffused background staining of Rad51
- Rad51 foci at 48 h ([1]; 48 h after irradiation): Rad51 foci remain visible
- recruitment of POLD3 to PCNA [2]: did not seem to affect the recruitment of POLD3 to PCNA
- ãH2A.X level within 30 min after irradiation [3]: increased within 30 min following ã-irradiation in cells treated with either peptide
- ãH2A.X level 48 h after irradiation ([3]; 48 h): remained elevated
- resolution of ãH2A.X foci [4]: delayed the resolution of ãH2A.X foci induced by ã-irradiation
- toxicity to breast, lung, and pancreatic cancer cell lines vs non-malignant lines [5]: selectively toxic to breast, lung, and pancreatic cancer cell lines
- LIGI co-localization with PCNA foci [6]: largely blocked

Reference: article PMC3984256, “A PCNA-Derived Cell Permeable Peptide Selectively Inhibits Neuroblastoma Cell Growth” (PLoS ONE, 2014)
